One series relates to TXNIP. Put plainly: Inhibition of glucose-induced endogenous TXNIP expression in INS-1 cells (qRT-PCR). The class given is cell-based, Rat. The note with it: 25 mM glucose, 24 hrs. The method in brief:
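Rat INS-1 cells were pre-cultured 24 h at 5 mM glucose, then exposed 24 h to 25 mM glucose ± compound. TXNIP mRNA was measured by one-step SYBR Green qRT-PCR and normalized to 18S rRNA (2^−ΔΔCT). % inhibition was fitted to a 4-parameter logistic for IC50.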

The next series has as its system INS-1 cells. The series is described as follows: INS-1 cell viability (Cell Titer-Glo, ATP). Conditions: 72 hrs treatment, hydrochloride. The class given is cell-based, Rat. The method in brief: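 Cells seeded at 4.5×10^4 or 3.5×10^4 per well, incubated overnight at 37° C, 5% CO2, then treated with compounds for 24 hrs or 72 hrs respectively. Viability taken as ATP content by Cell Titer-Glo luminescence.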

Another series deals with wild-type mice. Put plainly: Oral administration to wild-type mice (glucose, glucagon, hepatic glucose production, lipids). The format is in vivo. The protocol:
Compound #11a was administered for three weeks in the drinking water of wild-type mice at about 100 mg/kg/d.
Further studies of hepatic glucose production and whole body glucose turnover, i.e., peripheral glucose uptake into muscle and adipose tissue, were performed using hyperinsulinemic-euglycemic clamp studies.

The next series concerns db/db mice. The series is described as follows: Obese diabetic db/db mice (Type 2 diabetes model). The format is in vivo. The note with it: oral, 4 weeks. Here is the method:
Obese, insulin-resistant and diabetic, leptin receptor-deficient db/db mice were administered compound #11a as described above for 4 weeks. […] In addition, they can lower liver and serum lipid levels

The subject of the next series is STZ-diabetic mice. The series is described as follows: Multiple low-dose STZ-induced diabetes in mice. The class given is in vivo. The protocol:
After having been rendered overtly diabetic by multiple low-dose STZ injections, mice received compound #11a by gavage at a dose of 100 mg/kg b.i.d or 30 mg/kg b.i.d. or received a vehicle control.

In the next series the test system is alpha TC1-6 cells. The series is described as follows: Glucagon secretion of alpha TC1-6 cells. The class given is cell-based. The note with it: incubation of alpha TC1-6 cells with compound.
[1] abbreviates: about 100 mg/kg/d in drinking water, three weeks.
Setting [2] is: vs untreated db/db, hydrochloride.

In general, CC50 refers to the concentration at which the toxic effect on the cells reaches its halfway point.

Entries after “also recorded” stand apart in the source; their conditions may differ.

In the case of `CS(=O)(=O)NCC1CCCN(c2ncnc3ccc(C(F)(F)F)cc23)C1.Cl` (centres unmarked) [Compound 11a, N-((1-(6-(trifluoromethyl)quinazolin-4-yl)piperidin-3-yl)methyl)methanesulfonamide hydrochloride], the “TXNIP % Inhibition at 1.5 μM” value in the series on TXNIP (1.5 μM compound) was 35%. In addition, the “TXNIP % Inhibition at 12.5 μM” value with TXNIP (12.5 μM compound) turned out to be 57%. In addition, the CC50 in the series with INS-1 cells was greater than 100 µM. Besides, the blood glucose levels result with wild-type mice (setting [1]) is “small but significant decrease”; with db/db mice (setting [2]) it was “significantly lower; also recorded: decreased significantly”; with STZ-diabetic mice (STZ (day 1-5) wild-type mice, oral compound day 5-15, vs untreated STZ mice), “significantly lower”; in the series on STZ-diabetic mice (overtly diabetic STZ mice, gavage 100 mg/kg b.i.d or 30 mg/kg b.i.d., vs vehicle) it was “significantly decreased in a dose-dependent manner”. The body weight result in the series on wild-type mice (setting [1]) was “no change”; in the series on db/db mice (setting [2]), “no significant effect; also recorded: no difference”; in the series on STZ-diabetic mice (STZ-treated mice, oral 100 mg/kg/d, hydrochloride, 100 mg/kg/day) it was “no detrimental effect; also recorded: maintained a normal body weight”. The “gross abnormalities in organs upon sacrifice” value in the series on wild-type mice (setting [1]) was “no gross abnormalities”. For the same compound, the “fasting serum glucagon levels” value was “decreased” in the series with wild-type mice (about 100 mg/kg/d in drinking water, vs control) and “significant decrease” with db/db mice. Besides, in the series on wild-type mice (hyperinsulinemic-euglycemic clamp, vs control), the “basal hepatic glucose production” value is listed as “significant decrease”. For the same compound, the liver triglyceride levels entry with wild-type mice (oral, vs control) was “two-fold lower”. The “serum non-esterified fatty acids” value in the series with wild-type mice (oral, vs control) was “significantly lower”. Moreover, the serum triglycerides entry with wild-type mice (oral, vs control) is given as “significantly lower”. Moreover, in the series with STZ-diabetic mice (STZ-treated mice, oral 100 mg/kg/d, throughout experiment, sacrifice and dissection), the “detrimental effects or abnormalities” value is “no detrimental effects or abnormalities”. Further, in the series with STZ-diabetic mice (oral 100 mg/kg/d starting after multiple low-dose STZ regimen), the protection against diabetes entry is “effectively protected”. Also, the glucagon secretion entry in the series on alpha TC1-6 cells is reported as “decreased”.

The values above are taken from patent US11524010B2, “Substituted quinazoline sulfonamides as thioredoxin interacting protein (TXNIP) inhibitors” (SOUTHERN RESEARCH INSTITUTE, priority 2017, dated 2022).
